Measured values published in patent US6689767B2, “Triterpenes having antibacterial activity” (Regents of the University of Minnesota, priority 2000, dated 2004).
Converted amounts (≈) assume the structure as drawn.

Tests used:
[1] = test system: Escherichia coli; assay: Kirby-Bauer disk diffusion growth inhibition, Escherichia coli; format: cell-based; settings: for Zone of inhibition Escherichia coli: 10 mg/ml in DMSO, 100 μl on 10 mm disk, 18 hours 37° C.
Procedure, shortened: (§1)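 Bacteria grown 18 h at 37 °C in nutrient broth, 0.5 ml swabbed onto Mueller-Hinton agar; 10 mm disks loaded with 100 μl compound in DMSO or water (additional compounds at 10 mg/ml in DMSO). Inhibition zones measured after 18 h at 37 °C, in triplicate.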

[2] = test system: Staphylococcus aureus; assay: Kirby-Bauer disk diffusion growth inhibition, Staphylococcus aureus; format: cell-based; settings: for Zone of inhibition Staphylococcus aureus: 100 μl on 10 mm disk, 18 hours 37° C.; for Active against: Table 1 summary, S. aureus; for effectiveness against S. aureus: Tables 1a and 1b
Procedure, shortened: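 S. aureus broth culture (18 h, 37 °C) spread on Mueller-Hinton agar; 10 mm disks carrying 100 μl compound solution in DMSO or water, one set at 10 mg/ml in DMSO. Inhibition zones measured after 18 h at 37 °C, in triplicate.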

[3] = test system: Bacillus subtilis; assay: Kirby-Bauer disk diffusion growth inhibition, Bacillus subtilis; format: cell-based; settings: 10 mg/ml in DMSO, 100 μl on 10 mm disk, 18 hours 37° C.
Procedure, shortened: as §1

[4] = test system: S. aureus; assay: Minimum inhibitory concentration in tryptic soy broth, S. aureus; format: cell-based, Staphylococcus aureus; settings: 24 hours 37° C., turbidity
Protocol: (§2) Sterile tryptic soy broth was prepared according to the manufacturer's instructions (Difco Lab, Michigan). To each tube containing 7 ml of broth, test compounds dissolved in DMSO were added at different concentrations in triplicate. The tubes were incubated for 24 hours at 37° C. and then turbidity was measured using a […]. The colorimeter was calibrated with sterile broth. The MIC was the lowest concentration that could prevent an increase in turbidity.

[5] = test system: bacteria; assay: Summary statements over the antibacterial assays above; format: cell-based; settings: summary list
[6] = test system: methicillin-resistant Staphylococcus aureus; assay: Growth inhibition of methicillin-resistant Staphylococcus aureus; format: cell-based
Protocol: The compounds disclosed herein were tested for growth inhibition against four strains of bacteria: Escherichia coli, Staphylococcus aureus, methicillin-resistant Staphylococcus aureus, and Bacillus subtilis. […] They represent […]. E. coli is a gram-negative, non-spore forming, rod-shaped, opportunistic pathogen that resides in the human digestive tract. S. aureus is a gram positive coccus, is usually found morphologically as a […], and is an opportunistic human pathogen, often residing on or in the skin. B. subtilis is a gram positive spore-forming rod. Its native environment is the soil. The chemicals were tested for growth-inhibition of the bacteria by the Kirby-Bauer method. See, e.g., Microbiology, third edition; Lansing M. Prescott, John P. Harley, and Donald A. Klein; Wm. C. Brown Publishers.
Mueller-Hinton agar (Difco Lab, Michigan) was prepared according to the manufacturer's directions, and 20 ml was dispensed in each sterile petri dish. Sterile nutrient broth (Difco Lab, Michigan) was also prepared according to the manufacturer's directions.
Bacteria were grown in liquid nutrient broth for 18 hours at 37° C. until they were turbid.
An aliquot of 0.5 ml of cultured bacteria was aseptically transferred to the surface of a Mueller-Hinton agar plat, and spread using a cotton-tipped swab. […]
The zones of inhibition were measured after 18 hours growth at 37° C. […]

[7] = test system: methicillin resistant S. aureus; assay: Minimum inhibitory concentration in tryptic soy broth, methicillin resistant S. aureus; format: cell-based, Staphylococcus aureus; settings: 24 hours 37° C., turbidity
Protocol: as §2

[8] = test system: E. Coli; assay: Minimum inhibitory concentration in tryptic soy broth, E. coli; format: cell-based, Escherichia coli; settings: 24 hours 37° C., turbidity
Protocol: as §2

| SMILES | Zone of inhibition Escherichia coli [1] | Zone of inhibition Staphylococcus aureus ([2]; 10 mg/ml in DMSO) | sensitivity of S. aureus ([2]; Example 34, 10 mg/ml in DMSO) | Active against [2] | effectiveness against S. aureus [2] | Zone of inhibition Bacillus subtilis [3] | minimum inhibitory concentration [4] | active against at least one strain of bacteria in the assays above [5] | amount applied to the disk that inhibited S. aureus ([2]; disk diffusion assay, laboratory strain (not methicillin resistant)) | effectiveness against S. aureus compared with streptomycin ([2]; laboratory strain (not methicillin resistant)) | effectiveness against methicillin resistant S. aureus [6] | Active against ([6]; Table 1 summary, S. aureus methicillin resistant) | MIC [7] | Active against ([1]; Table 1 summary, E. coli) | effectiveness against E. Coli ([1]; Tables 1a and 1b) | MIC [8] |
| --- | --- | --- | --- | --- | --- | --- | --- | --- | --- | --- | --- | --- | --- | --- | --- | --- |
| C=C(C)[C@@H]1CC[C@]2(COC(=O)c3ccccc3C(=O)O)CC[C@]3(C)[C@H](CC[C@@H]4[C@@]5(C)CC[C@H](OC(=O)c6ccccc6C(=O)O)C(C)(C)[C@@H]5CC[C@]43C)[C@@H]12 [Betulin 3,28-diphthalate, Betulin-3,28-diphthalate] | 0 mm | 10.0 mm | sensitive | S. aureus | effective | 0 mm | 2.3 µM (≈ 1.7 µg/mL) | active against at least one strain of bacteria | – | – | – | – | – | – | – | – |
| C=C(C)[C@@H]1CC[C@]2(COC(=O)/C=C\C(=O)O)CC[C@]3(C)[C@H](CC[C@@H]4[C@@]5(C)CC[C@H](OC(=O)/C=C\C(=O)O)C(C)(C)[C@@H]5CC[C@]43C)[C@@H]12 [Betulin 3,28-dimaleate, Betulin-3,28-dimaleate] | 0 mm | 11.0 mm | – | S. aureus, | effective | 0 mm | 2.3 µM (≈ 1.47 µg/mL) | – | 56 ng | more effective | effective | S. aureus methicillin | 0.282 µM (≈ 0.18 µg/mL) | – | – | – |
| C=C(C)[C@@H]1CC[C@]2(COC(=O)COCC(=O)O)CC[C@]3(C)[C@H](CC[C@@H]4[C@@]5(C)CC[C@H](OC(=O)COCC(=O)O)C(C)(C)[C@@H]5CC[C@]43C)[C@@H]12 [Betulin 3,28-didiglycolate, Betulin-3,28-didiglycolate] | 0 mm | 0 mm | – | – | – | 0 mm | – | active against at least one strain of bacteria | – | – | – | – | – | E. coli | effective | 0.282 µM (≈ 0.19 µg/mL) |
